Assay results: patent publication US20100010082A1, “FORMULATIONS FOR TREATING EYE DISORDERS” (Aspreva International Ltd., priority 2008, published 2010)
Where two headings read alike, the source gives them in different places. Marks after values point to notes of the source that are not given here.

What was measured:
[1] = CellCept® label / Myfortic® label; cited from earlier work
[2] = tested on: Bovine Ocular Melanin Induced Uveitis in Lewis Rats
[3] = tested on: Scopolamine Induced Dry Eye in C57BL/6 Mice; assay: Scopolamine induced dry eye model; assay type: in vivo, Mus musculus; conditions: by the end of the study (Day 13)
Description: This dry eye model was based on that described in De Paiva et al., 2006, Investigative Opthalmology & Visual Science 47(7):2847-2856, incorporated herein by reference. The study consisted of seven groups of 10 female C57BL/6 mice each. Starting on Day 0, mice of Groups 1-6 were treated four times-daily (QID) with topical bilateral ocular (OU) administration of control or test articles at intervals of at least two hours. […] Mice in Group 7 served as untreated controls. On Day 3, scopolamine patches were placed on the tails of the mice and replaced every other day (Q2D) thereafter. From Days 3-12, mice were maintained in an environment with high-volume air draft (see Environmental stress section, below). […]
For each day of administration, mice were briefly restrained. […] Following patch application, animals were monitored for any adverse reactions, including the condition of the tail and Vetwrap®. […]
Slit Lamp Corneal Examinations. Both eyes of each animal were evaluated via a slit lamp ophthalmic examination using topically-applied fluorescein. Fluorescein dye was used to examine the surface of the cornea and scored.
Pathology. […] A board-certified veterinary pathologist evaluated slides via light microscopy. […]
Eyes were serially sectioned and examined. The representative corneas were scored based upon a 0-4 scale, with 0 being normal, 1 being minimal, 2 being mild, 3 being moderate, and 4 being severe. […]

[4] = tested on: Con-A-induced dry eye in NZW rabbits; assay: Con A induced dry eye model, Tear Break-up Test (TBUT); assay type: in vivo, Oryctolagus cuniculus
[5] = Days 17/18, pooled average (+/−SEM) of both eyes
[6] = Days 19/20, pooled average (+/−SEM) of both eyes
[7] = Days 26/27, pooled average (+/−SEM) of both eyes
[8] = Days 28/29, pooled average (+/−SEM) of both eyes
[9] = Days −2/−1 (before immunization and dosing)

COc1c(C)c2c(c(O)c1C/C=C(\C)CCC(=O)OCCN1CCOCC1)C(=O)OC2 [MMF, mycophenolate mofetil]
solubility (in words) [1]: only slightly soluble in water

C[C@@H]1C[C@H]2[C@@H]3CCC4=CC(=O)C=C[C@]4(C)[C@@]3(F)[C@@H](O)C[C@]2(C)[C@@]1(O)C(=O)CO [dexamethasone]
Hyperemia Scores (pooled) ([2]; Days 14/15, pooled average (+/−SEM) of both eyes): 2.0 ± | Hyperemia Scores (pooled) [2, 5]: 2.2 ± | Opacity Scores (pooled) [2, 5]: 1.1 ± | Hyperemia Scores (pooled) [2, 6]: 3.0 ± 0.0 | Opacity Scores (pooled) [2, 6]: 2.0 ± 0.0 | Hyperemia Scores (pooled) [2, 7]: 1.5 ± 0.5 | Opacity Scores (pooled) [2, 7]: 1.3 ± 0.5 | Hyperemia Scores (pooled) [2, 8]: 0.0* | Opacity Scores (pooled) [2, 8]: 0.0* | Hyperemia Scores (pooled) [2, 9]: 0 | Opacity Scores (pooled) [2, 9]: 0 | weight loss during study ([2]; rat, in vivo): significant drug-related weight loss | weight loss relative to other groups [3]: approx. 20% | TBUT, post-hoc Tukey P vs. Vehicle ([4]; D6 (before Con A injection on Day 8)): <0.01 | TBUT, post-hoc Tukey P vs. Vehicle ([4]; D9): <0.05 | TBUT, post-hoc Tukey P vs. Vehicle ([4]; D10): <0.01 | TBUT, post-hoc Tukey P vs. Vehicle ([4]; D14): <0.001 | TBUT, post-hoc Tukey P vs. Vehicle ([4]; D15): <0.01 | TBUT, post-hoc Tukey P vs. Vehicle ([4]; D16): <0.001 | TBUT, post-hoc Tukey P vs. Vehicle ([4]; D17): <0.001

COc1c(C)c2c(c(O)c1C/C=C(\C)CCC(=O)[O-])C(=O)OC2.[Na+] [NaMPA, sodium mycophenolic acid]
solubility (in words) [1]: highly soluble in aqueous solutions at physiological pH
